# From patent publication US8952024B2, “Herbicidal pyrimidone derivatives” (E I du Pont de Nemours and Company, priority 2009, dated 2015)
# Tests used:
# Format in all cases: in vivo
# [1] = test system: corn (Zea mays); test: Test B pre-/postemergence plant response
# Summary of the method: (§1)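 Visually scored on a 0 to 100 scale after 13 to 15 days in greenhouse versus controls. Treatments were preemergence on seeded loam/sand soil and postemergence on 1- to 4-leaf plants.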
# [2] = test system: giant foxtail (Setaria faberii); test: Test B pre-/postemergence plant response
# Summary of the method: as §1
# [3] = test system: goosegrass (Eleusine indica); test: Test B pre-/postemergence plant response
# Summary of the method: as §1
# [4] = test system: green foxtail (Setaria viridis); test: Test B pre-/postemergence plant response
# Summary of the method: as §1
# [5] = test system: johnsongrass (Sorghum halepense); test: Test B pre-/postemergence plant response
# Summary of the method: as §1
# [6] = test system: lambsquarters (Chenopodium album); test: Test B pre-/postemergence plant response
# Summary of the method: as §1
# [7] = test system: pigweed (Amaranthus retroflexus); test: Test B pre-/postemergence plant response
# Summary of the method: as §1
# [8] = test system: soybean (Glycine max); test: Test B pre-/postemergence plant response
# Summary of the method: as §1
# [9] = test system: velvetleaf (Abutilon theophrasti); test: Test B pre-/postemergence plant response
# Summary of the method: as §1
# [10] = test system: yellow nutsedge (Cyperus esculentus); test: Test B pre-/postemergence plant response
# Summary of the method: as §1
# [11] = test system: canarygrass (Phalaris minor); test: Test B postemergence plant response
# Summary of the method: (§2)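 Plants grown in peat/vermiculite medium were sprayed postemergence at 2–18 cm height (1- to 4-leaf stage). After 13–15 days in the greenhouse, response was rated visually against untreated controls on a 0–100 scale (0 no effect, 100 complete control).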
# [12] = test system: chickweed (Stellaria media); test: Test B postemergence plant response
# Summary of the method: as §2
# [13] = test system: windgrass (Apera spica-venti); test: Test B postemergence plant response
# Summary of the method: as §2
# [14] = test system: winter barley (Hordeum vulgare); test: Test B postemergence plant response
# Summary of the method: as §2
# [15] = 62 g ai/ha, postemergence, 0 is no effect, 100 is complete control, 13 to 15 days
# [16] = Postemergence, 31 g ai/ha, 0 to 100 scale (0 no effect, 100 complete control)
# [17] = Postemergence, 125 g ai/ha, scale 0 to 100 (0 no effect, 100 complete control)
# [18] = Postemergence, 250 g ai/ha, scale 0 to 100 (0 no effect, 100 complete control), 13 to 15 days
# [19] = 250 g ai/ha, Preemergence, 0 to 100 scale
# [20] = Postemergence, 31 g ai/ha, scale 0 to 100 (0 no effect, 100 complete control)
# [21] = Postemergence, 62 g ai/ha, scale 0 (no effect) to 100 (complete control), 13 to 15 days
# [22] = Postemergence, 125 g ai/ha, visual rating after 13 to 15 days, scale 0 (no effect) to 100 (complete control)
# [23] = Postemergence, 250 g ai/ha, scale 0 to 100
# [24] = Preemergence, 31 g ai/ha, scale 0 to 100 (0 no effect, 100 complete control)
# [25] = Preemergence, 62 g ai/ha, scale 0 to 100 (0 no effect, 100 complete control)
# [26] = Preemergence, 125 g ai/ha, 0 to 100 scale
structure (smiles),measurement,setting,value
CCCn1c(-c2cc(F)cc(F)c2)ncc(C(=O)C2=C(O)CCCC2=O)c1=O [Compound 152],Corn plant response rating (0 to 100 scale),[1]; [15],45
same,"Plant response rating, Corn",[1]; [16],25
same,"Plant response rating, Corn",[1]; [17],65
same,"Plant response rating, Corn",[1]; [18],80
same,"Foxtail, Giant plant response rating (0 to 100 scale)",[2]; [15],85
same,"Plant response rating, Foxtail, Giant",[2]; [16],80
same,"Plant response rating, Foxtail, Giant",[2]; [17],95
same,"Plant response rating, Foxtail, Giant",[2]; [18],98
same,Goosegrass plant response rating (0 to 100 scale),[3]; [15],85
same,"Plant response rating, Goosegrass",[3]; [16],80
same,"Plant response rating, Goosegrass",[3]; [17],95
same,"Plant response rating, Goosegrass",[3]; [18],98
same,"Foxtail, Green plant response rating (0 to 100 scale)",[4]; [15],75
same,"Plant response rating, Foxtail, Green",[4]; [16],75
same,"Plant response rating, Foxtail, Green",[4]; [17],98
same,"Plant response rating, Foxtail, Green",[4]; [18],100
same,Johnsongrass plant response rating (0 to 100 scale),[5]; [15],90
same,"Plant response rating, Johnsongrass",[5]; [16],70
same,"Plant response rating, Johnsongrass",[5]; [17],95
same,"Plant response rating, Johnsongrass",[5]; [18],100
same,Lambsquarters plant response rating (0 to 100 scale),[6]; [15],95
same,"Plant response rating, Lambsquarters",[6]; [16],85
same,"Plant response rating, Lambsquarters",[6]; [17],98
same,"Plant response rating, Lambsquarters",[6]; [18],100
same,Pigweed plant response rating (0 to 100 scale),[7]; [15],98
same,"Plant response rating, Pigweed",[7]; [16],95
same,"Plant response rating, Pigweed",[7]; [17],100
same,"Plant response rating, Pigweed",[7]; [18],100
same,Soybean plant response rating (0 to 100 scale),[8]; [15],70
same,"Plant response rating, Soybean",[8]; [16],70
same,"Plant response rating, Soybean",[8]; [17],98
same,"Plant response rating, Soybean",[8]; [18],100
same,Velvetleaf plant response rating (0 to 100 scale),[9]; [15],95
same,"Plant response rating, Velvetleaf",[9]; [16],85
same,"Plant response rating, Velvetleaf",[9]; [17],100
same,"Plant response rating, Velvetleaf",[9]; [18],100
same,"Nutsedge, Yellow plant response rating (0 to 100 scale)",[10]; [15],75
same,"Plant response rating, Nutsedge, Yellow",[10]; [16],65
same,"Plant response rating, Nutsedge, Yellow",[10]; [17],80
same,"Plant response rating, Nutsedge, Yellow",[10]; [18],80
same,Canarygrass plant response rating (0 to 100 scale),[11]; [15],45
same,"Plant response rating, Canarygrass",[11]; [16],35
same,"Plant response rating, Canarygrass",[11]; [17],80
same,"Plant response rating, Canarygrass",[11]; [18],85
same,Chickweed plant response rating (0 to 100 scale),[12]; [15],65
same,"Plant response rating, Chickweed",[12]; [16],10
same,"Plant response rating, Chickweed",[12]; [17],90
same,"Plant response rating, Chickweed",[12]; [18],95
same,Windgrass plant response rating (0 to 100 scale),[13]; [15],70
same,"Plant response rating, Windgrass",[13]; [16],50
same,"Plant response rating, Windgrass",[13]; [17],85
same,"Plant response rating, Windgrass",[13]; [18],98
same,Barley plant response rating (0 to 100 scale),[14]; [15],45
same,"Plant response rating, Barley",[14]; [16],10
same,"Plant response rating, Barley",[14]; [17],85
same,"Plant response rating, Barley",[14]; [18],90
Cc1ccccc1-n1c(-c2ccccc2)ncc(C(=O)C2=C(O)CCCC2=O)c1=O [Compound 12],"Plant response rating, Corn",[1]; [19],75
same,"Plant response rating, Corn",[1]; [20],25
same,"Plant response rating, Corn",[1]; [21],30
same,"Plant response rating, Corn",[1]; [22],45
same,Corn plant response rating,[1]; [23],75
same,"Plant response rating, Corn",[1]; [24],0
same,"Plant response rating, Corn",[1]; [25],0
same,Corn plant response rating,[1]; [26],15
same,"Plant response rating, Foxtail, Giant",[2]; [19],100
same,"Plant response rating, Foxtail, Giant",[2]; [20],75
same,"Plant response rating, Foxtail, Giant",[2]; [21],90
same,"Plant response rating, Foxtail, Giant",[2]; [22],98
same,"Foxtail, Giant plant response rating",[2]; [23],98
same,"Plant response rating, Foxtail, Giant",[2]; [24],0
same,"Plant response rating, Foxtail, Giant",[2]; [25],20
same,"Foxtail, Giant plant response rating",[2]; [26],70
same,"Plant response rating, Goosegrass",[3]; [19],100
same,"Plant response rating, Goosegrass",[3]; [20],70
same,"Plant response rating, Goosegrass",[3]; [21],85
same,"Plant response rating, Goosegrass",[3]; [22],98
same,Goosegrass plant response rating,[3]; [23],100
same,"Plant response rating, Goosegrass",[3]; [24],85
same,Goosegrass plant response rating,[3]; [26],100
same,"Plant response rating, Foxtail, Green",[4]; [19],80
same,"Plant response rating, Foxtail, Green",[4]; [20],40
same,"Plant response rating, Foxtail, Green",[4]; [21],60
same,"Plant response rating, Foxtail, Green",[4]; [22],70
same,"Foxtail, Green plant response rating",[4]; [23],70
same,"Plant response rating, Foxtail, Green",[4]; [24],0
same,"Plant response rating, Foxtail, Green",[4]; [25],0
same,"Foxtail, Green plant response rating",[4]; [26],40
same,"Plant response rating, Johnsongrass",[5]; [19],98
same,"Plant response rating, Johnsongrass",[5]; [20],55
same,"Plant response rating, Johnsongrass",[5]; [21],60
same,"Plant response rating, Johnsongrass",[5]; [22],60
same,Johnsongrass plant response rating,[5]; [23],75
same,"Plant response rating, Johnsongrass",[5]; [24],0
same,"Plant response rating, Johnsongrass",[5]; [25],0
same,Johnsongrass plant response rating,[5]; [26],75
same,"Plant response rating, Lambsquarters",[6]; [19],100
same,"Plant response rating, Lambsquarters",[6]; [20],80
same,"Plant response rating, Lambsquarters",[6]; [21],85
same,"Plant response rating, Lambsquarters",[6]; [22],98
same,Lambsquarters plant response rating,[6]; [23],98
same,"Plant response rating, Lambsquarters",[6]; [24],100
same,"Plant response rating, Lambsquarters",[6]; [25],100
same,Lambsquarters plant response rating,[6]; [26],100
same,"Plant response rating, Pigweed",[7]; [19],100
same,"Plant response rating, Pigweed",[7]; [20],95
same,"Plant response rating, Pigweed",[7]; [21],95
same,"Plant response rating, Pigweed",[7]; [22],98
same,Pigweed plant response rating,[7]; [23],100
same,"Plant response rating, Pigweed",[7]; [24],100
same,"Plant response rating, Pigweed",[7]; [25],100
same,Pigweed plant response rating,[7]; [26],100
same,"Plant response rating, Soybean",[8]; [19],95
same,"Plant response rating, Soybean",[8]; [20],98
same,"Plant response rating, Soybean",[8]; [21],100
same,"Plant response rating, Soybean",[8]; [22],100
same,Soybean plant response rating,[8]; [23],100
same,"Plant response rating, Soybean",[8]; [24],60
same,"Plant response rating, Soybean",[8]; [25],65
same,Soybean plant response rating,[8]; [26],80
same,"Plant response rating, Velvetleaf",[9]; [19],100
same,"Plant response rating, Velvetleaf",[9]; [20],80
same,"Plant response rating, Velvetleaf",[9]; [21],85
same,"Plant response rating, Velvetleaf",[9]; [22],98
same,Velvetleaf plant response rating,[9]; [23],100
same,"Plant response rating, Velvetleaf",[9]; [24],90
same,"Plant response rating, Velvetleaf",[9]; [25],100
same,Velvetleaf plant response rating,[9]; [26],100
same,"Plant response rating, Nutsedge, Yellow",[10]; [19],90
same,"Plant response rating, Nutsedge, Yellow",[10]; [20],15
same,"Plant response rating, Nutsedge, Yellow",[10]; [21],55
same,"Plant response rating, Nutsedge, Yellow",[10]; [22],65
same,"Nutsedge, Yellow plant response rating",[10]; [23],80
same,"Plant response rating, Nutsedge, Yellow",[10]; [24],25
same,"Plant response rating, Nutsedge, Yellow",[10]; [25],60
same,"Nutsedge, Yellow plant response rating",[10]; [26],75
same,"Plant response rating, Canarygrass",[11]; [20],0
same,"Plant response rating, Canarygrass",[11]; [21],5
same,"Plant response rating, Canarygrass",[11]; [22],5
same,Canarygrass plant response rating,[11]; [23],40
same,"Plant response rating, Chickweed",[12]; [20],100
same,"Plant response rating, Chickweed",[12]; [21],100
same,"Plant response rating, Chickweed",[12]; [22],100
same,Chickweed plant response rating,[12]; [23],100
same,"Plant response rating, Windgrass",[13]; [20],10
same,"Plant response rating, Windgrass",[13]; [21],40
same,"Plant response rating, Windgrass",[13]; [22],45
same,Windgrass plant response rating,[13]; [23],50
same,"Plant response rating, Barley",[14]; [20],0
same,"Plant response rating, Barley",[14]; [21],0
same,"Plant response rating, Barley","[14]; Postemergence, 125 g ai/ha, scale 0 to 100 (0 no effect, 100 complete control), 13 to 15 days",0
same,Barley plant response rating,[14]; [23],0
